The values that follow are results of earlier work, collected in patent US20120046172A1, “METHODS FOR USE OF TRIALKYLBENZYLAMMONIUM HALIDE COMPOSITIONS AS NON-SELECTIVE TERRESTRIAL PLANT HERBICIDES” (priority 2010, published 2012).

The test system of one data set is bean plants. As to conditions: compositions with ADBAC concentrations in the range of 0.1 to 1%; DD215228.
The next data set relates to wheat plants. Conditions: compositions with ADBAC concentrations in the range of 0.1 to 1%; DD215228.

In the case of “alkyldimethylbenzyl ammonium chloride [ADBAC]”, the “Effect on bean plants” value in the data set on bean plants is “leaf desiccation and defoliation”. Further, the “Effect on wheat plants” value with wheat plants is reported as “plant stunting”.
